Our source for the IC50 values is ChEMBL document CHEMBL5729744, “Granzyme B directed imaging and therapy” (2023).

A value given as a limit tells only on which side of the number the result lay.

For the assay, the target named is Granzyme B (Homo sapiens, UniProt P10144). Kind of assay: Biochemical Assay: Buffer pH7.4: Prepare 1 (M) KH2PO4 and 1 (M) K2HPO4. Titrate 1(M) K2HPO4 with 1 (M) KH2PO4 to obtain pH 7.40. Dilute this buffer 10 fold in Water (30 ml buffer+270 ml of water) to obtain 100 mM phosphate buffer. Adjust pH to 7.40±0.02 using 5(N) HCl or 5(N) NaOH. NADPH Regeneration System (NRS): Prepare a solution containing 13 mM NADP, 33 mM Glucose-6-phosphate, 33 mM MgCl2and 4 U/ml Glucose-6-phosphate dehydrogenase in buffer. Liver Microsome (LM) suspension: Thaw LM vial on ice, then mix 1.0 ml LM (20 mg/ml) with 19 ml buffer [final LM Conc: 1 mg/ml] LM+NRS suspension: Mix 5.0 ml NRS with 20 ml LM suspension [final LM Conc: 0.8 mg/ml] System suitability standard: a synthesized compound having Mol wt 686.2 used as System suitability standard. Dissolve this compound in ice-cold acetonitrile to obtain concentration of 0.1 μg/ml and store at 4° C. Compound Dilution: Compound Stock: 10 mM in DMSO Sub stock (100 μM): 4 μl of 10 mM Compound Stock+398 μl Acetonitrile. Working plate (2 μM): 10 μl of 100 μM Sub stock+490 μl buffer Assay Procedure Incubate all plastic materials including tips at 37° C. overnight. Incubate LM suspension and NRS at 37° C. for 15 min before use. Add 40 μl buffer to the wells of blank plate. Add 40 μl compound (from working plate) to 0, 5, 10, 20, 30 and 60 min plates. Initiate reaction by adding 40 μl of LM+NRS suspension in each plate. […]. In general terms: Liver microsomes are vesicles of endoplasmic reticulum, rich in cytochrome P450 enzymes.
Sequence of Granzyme B (P10144 whole entry): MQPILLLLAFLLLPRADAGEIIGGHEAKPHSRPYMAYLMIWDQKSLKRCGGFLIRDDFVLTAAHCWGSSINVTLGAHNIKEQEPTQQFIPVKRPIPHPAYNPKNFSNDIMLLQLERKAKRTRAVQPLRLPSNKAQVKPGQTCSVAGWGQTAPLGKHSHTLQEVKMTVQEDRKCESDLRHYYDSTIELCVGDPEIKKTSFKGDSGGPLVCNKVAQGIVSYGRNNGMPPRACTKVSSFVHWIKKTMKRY

What is called IC50 is the concentration needed to halve the response being measured. Low readings indicate greater potency in that assay, high ones weaker potency in that assay. Take `O=C(Cc1ccccc1)NCC(=O)N[C@H]1CCc2cccc3c2N(C1=O)[C@H](C(=O)NCc1c[nH]nn1)C3`: the IC50 is above 5 µM.
